In ChEMBL document CHEMBL1687697 (ACS Med Chem Lett, 2010):
The source made the active and inactive calls. No cut-off for these calls is given here.

What was measured:
[1] = target: Vascular endothelial growth factor receptor 2 (Homo sapiens, UniProt P35968); assay: Inhibition of VEGFR2 after 60 mins by radiometric assay
DU-145 [2] = assay: Induction of apoptosis in human DU145 cells assessed as late apoptotic cells at 1 uM after 72 hrs by AnnexinV-propidium iodide based FACS flow cytometry; format: functional
[3] = target: Protein kinase C alpha type (Homo sapiens, UniProt P17252); assay: Inhibition of PKC-alpha after 60 mins by radiometric assay
[4] = target: Receptor-type tyrosine-protein kinase FLT3 (Homo sapiens, UniProt P36888); assay: Inhibition of Flt3 after 60 mins by radiometric assay
DU-145 [5] = assay: Downregulation of Mcl-1 protein in human DU145 cells at 0.1 to 2 uM after 2 hrs by Western blot analysis; format: functional, cell-based
DU-145 [6] = assay: Induction of apoptosis in human DU145 cells assessed as early apoptotic cells at 5 uM after 72 hrs by AnnexinV-propidium iodide based FACS flow cytometry; format: functional
[7] = Inhibition of MEK after 60 mins by radiometric assay
[8] = target: Serine/threonine-protein kinase B-raf (Homo sapiens, UniProt P15056, V600E); assay: Inhibition of B-Raf V600E mutant after 60 mins by radiometric assay
[9] = target: Signal transducer and activator of transcription 5A (Homo sapiens) (UniProt P42229); assay: Inhibition of STAT5 phosphorylation at Tyr694 after 2 hrs by Western blot analysis
Signal transducer and activator of transcription 5A (Homo sapiens), sequence (P42229 whole entry): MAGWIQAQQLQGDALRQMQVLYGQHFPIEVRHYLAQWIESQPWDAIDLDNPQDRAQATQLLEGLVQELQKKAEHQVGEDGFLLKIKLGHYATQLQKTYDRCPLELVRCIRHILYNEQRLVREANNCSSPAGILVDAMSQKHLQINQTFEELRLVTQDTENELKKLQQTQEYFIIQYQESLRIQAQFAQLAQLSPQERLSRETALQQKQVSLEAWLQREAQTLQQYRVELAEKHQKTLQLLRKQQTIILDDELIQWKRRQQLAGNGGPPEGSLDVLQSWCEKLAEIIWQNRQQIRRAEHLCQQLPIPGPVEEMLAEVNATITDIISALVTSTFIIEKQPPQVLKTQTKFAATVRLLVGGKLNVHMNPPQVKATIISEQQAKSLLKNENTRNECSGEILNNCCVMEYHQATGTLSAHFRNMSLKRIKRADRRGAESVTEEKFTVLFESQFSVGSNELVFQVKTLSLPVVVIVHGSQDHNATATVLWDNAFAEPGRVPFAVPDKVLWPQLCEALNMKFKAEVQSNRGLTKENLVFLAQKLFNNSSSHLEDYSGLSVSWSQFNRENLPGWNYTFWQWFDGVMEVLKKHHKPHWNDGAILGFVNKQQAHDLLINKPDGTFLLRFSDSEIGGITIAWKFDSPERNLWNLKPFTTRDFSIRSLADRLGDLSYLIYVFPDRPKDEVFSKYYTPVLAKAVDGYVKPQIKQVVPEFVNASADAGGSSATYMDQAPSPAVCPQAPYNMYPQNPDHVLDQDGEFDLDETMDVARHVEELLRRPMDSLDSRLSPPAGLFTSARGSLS

DU-145 [10] = assay: Effect on phosphorylated-JAK2 protein level in human DU145 cells at 0.1 to 2 uM after 2 hrs by Western blot analysis; format: functional, cell-based
DU-145 [11] = assay: Cell cycle arrest in human DU145 cells assessed as accumulation in G0/G1 phase at 1 uM after 24 hrs by FACS flow cytometry; format: functional
HT-29 = assay: Antiproliferative activity against human HT-29 cells after 72 hrs by MTT assay; format: functional, cell-based; details: HT-29, 72 h
DU-145 [12] = assay: Effect on phosphorylated JAK1 protein level in human DU145 cells at 0.1 to 2 uM after 2 hrs by Western blot analysis; format: functional, cell-based
[13] = target: Fibroblast growth factor receptor 1 (Homo sapiens, UniProt P11362); assay: Inhibition of FGFR-1 after 60 mins by radiometric assay
DU-145 [14] = assay: Effect on Tyr416 phosphorylated-Src protein level in human DU145 cells at 0.1 to 2 uM after 2 hrs by Western blot analysis; format: functional, cell-based
DU-145 [15] = assay: Induction of apoptosis in human DU145 cells assessed as early apoptotic cells at 10 uM after 72 hrs by AnnexinV-propidium iodide based FACS flow cytometry; format: functional
DU-145 [16] = assay: Induction of apoptosis in human DU145 cells assessed as viable cells at 5 uM after 72 hrs by AnnexinV-propidium iodide based FACS flow cytometry; format: functional; details: DU-145, 72 h, read-out: Activity
DU-145 [17] = assay: Cell cycle arrest in human DU145 cells assessed as accumulation in G2/M phase at 0.5 uM after 24 hrs by FACS flow cytometry; format: functional
DU-145 [18] = assay: Cell cycle arrest in human DU145 cells assessed as accumulation in S phase at 0.2 uM after 24 hrs by FACS flow cytometry; format: functional
DU-145 [19] = assay: Effect on […] phosphorylated-Src protein level in human DU145 cells at 0.1 to 2 uM after 2 hrs by Western blot analysis; format: functional, cell-based
DU-145 [20] = assay: Effect on Src protein level in human DU145 cells at 0.1 to 2 uM after 2 hrs by Western blot analysis; format: functional, cell-based
A-431 = assay: Antiproliferative activity against human A431 cells after 72 hrs by MTT assay; format: functional, cell-based; details: A-431, 72 h
[21] = target: Tyrosine-protein kinase ABL1 (Homo sapiens, UniProt P00519); assay: Inhibition of Abl1 after 60 mins by radiometric assay
DU-145 [22] = assay: Growth inhibition of human DU145 cells assessed as inhibition of colony formation after 11 to 12 days by crystal violet staining based microscopic analysis; format: functional, cell-based
[23] = target: Tyrosine-protein kinase Lyn (Homo sapiens, UniProt P07948); assay: Inhibition of LYN after 60 mins by radiometric assay
Tyrosine-protein kinase Lyn, sequence (P07948 whole entry): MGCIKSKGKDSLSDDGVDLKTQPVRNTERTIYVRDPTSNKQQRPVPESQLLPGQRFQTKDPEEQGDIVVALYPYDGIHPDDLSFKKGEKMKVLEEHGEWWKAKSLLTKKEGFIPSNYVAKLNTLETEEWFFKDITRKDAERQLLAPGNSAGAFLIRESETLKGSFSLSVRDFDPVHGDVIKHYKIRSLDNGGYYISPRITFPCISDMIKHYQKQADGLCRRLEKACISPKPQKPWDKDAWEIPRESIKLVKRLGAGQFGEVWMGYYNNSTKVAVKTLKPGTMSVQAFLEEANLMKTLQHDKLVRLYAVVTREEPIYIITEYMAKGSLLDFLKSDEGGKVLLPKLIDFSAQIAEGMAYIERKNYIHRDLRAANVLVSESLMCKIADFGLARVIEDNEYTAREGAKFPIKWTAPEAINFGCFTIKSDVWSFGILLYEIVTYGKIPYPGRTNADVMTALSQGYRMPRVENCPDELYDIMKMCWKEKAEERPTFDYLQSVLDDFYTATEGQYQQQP

DU-145 [24] = assay: Decrease in c-Myc protein level in human DU145 cells at 0.1 to 2 uM after 2 hrs by Western blot analysis; format: functional, cell-based
Angiopoietin-1 receptor = Angiopoietin-1 receptor (Homo sapiens, UniProt Q02763); assay: Inhibition of TIE2 after 60 mins by radiometric assay
Angiopoietin-1 receptor, sequence (Q02763 whole entry): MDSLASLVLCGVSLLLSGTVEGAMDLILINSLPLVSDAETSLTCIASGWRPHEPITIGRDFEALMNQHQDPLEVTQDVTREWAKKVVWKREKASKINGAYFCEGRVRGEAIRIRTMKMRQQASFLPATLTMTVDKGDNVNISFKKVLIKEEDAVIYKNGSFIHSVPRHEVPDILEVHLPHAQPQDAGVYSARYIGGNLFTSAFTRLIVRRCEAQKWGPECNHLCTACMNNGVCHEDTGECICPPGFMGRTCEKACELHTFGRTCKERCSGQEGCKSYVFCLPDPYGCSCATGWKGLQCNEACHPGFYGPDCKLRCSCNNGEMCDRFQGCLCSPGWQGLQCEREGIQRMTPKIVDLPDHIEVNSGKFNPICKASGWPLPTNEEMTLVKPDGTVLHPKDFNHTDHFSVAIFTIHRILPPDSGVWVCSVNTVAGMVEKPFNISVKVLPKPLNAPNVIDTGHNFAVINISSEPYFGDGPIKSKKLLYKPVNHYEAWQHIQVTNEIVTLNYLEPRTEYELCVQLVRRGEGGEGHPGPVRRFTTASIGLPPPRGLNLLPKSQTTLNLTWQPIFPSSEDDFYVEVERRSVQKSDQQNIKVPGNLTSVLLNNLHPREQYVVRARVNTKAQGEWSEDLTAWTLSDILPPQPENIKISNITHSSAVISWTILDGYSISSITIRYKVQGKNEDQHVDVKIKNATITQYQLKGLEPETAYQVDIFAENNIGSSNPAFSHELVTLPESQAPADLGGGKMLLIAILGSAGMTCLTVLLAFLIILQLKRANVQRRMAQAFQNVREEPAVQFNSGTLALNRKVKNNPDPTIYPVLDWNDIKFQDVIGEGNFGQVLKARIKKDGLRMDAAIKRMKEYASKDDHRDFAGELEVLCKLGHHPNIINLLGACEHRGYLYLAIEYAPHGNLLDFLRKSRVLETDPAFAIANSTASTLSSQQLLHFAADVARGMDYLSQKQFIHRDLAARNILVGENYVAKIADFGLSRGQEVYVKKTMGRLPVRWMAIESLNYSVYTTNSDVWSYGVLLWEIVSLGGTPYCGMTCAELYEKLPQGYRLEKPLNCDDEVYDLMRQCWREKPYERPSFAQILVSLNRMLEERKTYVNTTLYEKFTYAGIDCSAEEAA

[25] = target: Glycogen synthase kinase-3 beta (Homo sapiens, UniProt P49841); assay: Inhibition of GSK3-beta after 60 mins by radiometric assay
Glycogen synthase kinase-3 beta, sequence (P49841 whole entry): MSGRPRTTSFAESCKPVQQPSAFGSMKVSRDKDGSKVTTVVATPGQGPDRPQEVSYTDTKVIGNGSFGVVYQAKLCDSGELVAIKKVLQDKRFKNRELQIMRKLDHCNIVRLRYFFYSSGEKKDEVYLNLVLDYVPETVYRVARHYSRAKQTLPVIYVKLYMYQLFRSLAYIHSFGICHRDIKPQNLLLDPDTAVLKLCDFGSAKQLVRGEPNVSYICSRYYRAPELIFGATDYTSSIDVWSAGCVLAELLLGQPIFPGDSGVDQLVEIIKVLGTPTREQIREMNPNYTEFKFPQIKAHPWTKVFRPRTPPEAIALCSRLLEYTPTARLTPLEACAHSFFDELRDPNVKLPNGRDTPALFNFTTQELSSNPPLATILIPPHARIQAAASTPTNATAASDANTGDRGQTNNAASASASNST

[26] = target: Mitogen-activated protein kinase 1 (Homo sapiens, UniProt P28482); assay: Inhibition of Erk2 after 60 mins by radiometric assay
Mitogen-activated protein kinase 1, sequence (P28482 whole entry): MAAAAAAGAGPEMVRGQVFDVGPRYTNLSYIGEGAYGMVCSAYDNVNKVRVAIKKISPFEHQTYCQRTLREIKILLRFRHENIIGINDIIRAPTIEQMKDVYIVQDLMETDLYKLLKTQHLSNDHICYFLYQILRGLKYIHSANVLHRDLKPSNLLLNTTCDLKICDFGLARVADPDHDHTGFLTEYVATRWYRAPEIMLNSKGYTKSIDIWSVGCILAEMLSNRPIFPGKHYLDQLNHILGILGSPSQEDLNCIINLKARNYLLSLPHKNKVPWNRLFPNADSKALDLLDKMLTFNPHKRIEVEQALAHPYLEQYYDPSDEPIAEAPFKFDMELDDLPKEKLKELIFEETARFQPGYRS

DU-145 [27] = assay: Decrease in Bcl-Xl protein level in human DU145 cells at 0.1 to 2 uM after 2 hrs by Western blot analysis; format: functional, cell-based
DU-145 [28] = assay: Cell cycle arrest in human DU145 cells assessed as accumulation in S phase at 1 uM after 24 hrs by FACS flow cytometry; format: functional
[29] = target: Signal transducer and activator of transcription 3 (Homo sapiens) (UniProt P40763); assay: Inhibition of STAT3 phosphorylation at Tyr705 in human DU145 cells after 24 hrs by Western blot analysis; format: cell-based; details: DU-145
Signal transducer and activator of transcription 3 (Homo sapiens), sequence (P40763 whole entry): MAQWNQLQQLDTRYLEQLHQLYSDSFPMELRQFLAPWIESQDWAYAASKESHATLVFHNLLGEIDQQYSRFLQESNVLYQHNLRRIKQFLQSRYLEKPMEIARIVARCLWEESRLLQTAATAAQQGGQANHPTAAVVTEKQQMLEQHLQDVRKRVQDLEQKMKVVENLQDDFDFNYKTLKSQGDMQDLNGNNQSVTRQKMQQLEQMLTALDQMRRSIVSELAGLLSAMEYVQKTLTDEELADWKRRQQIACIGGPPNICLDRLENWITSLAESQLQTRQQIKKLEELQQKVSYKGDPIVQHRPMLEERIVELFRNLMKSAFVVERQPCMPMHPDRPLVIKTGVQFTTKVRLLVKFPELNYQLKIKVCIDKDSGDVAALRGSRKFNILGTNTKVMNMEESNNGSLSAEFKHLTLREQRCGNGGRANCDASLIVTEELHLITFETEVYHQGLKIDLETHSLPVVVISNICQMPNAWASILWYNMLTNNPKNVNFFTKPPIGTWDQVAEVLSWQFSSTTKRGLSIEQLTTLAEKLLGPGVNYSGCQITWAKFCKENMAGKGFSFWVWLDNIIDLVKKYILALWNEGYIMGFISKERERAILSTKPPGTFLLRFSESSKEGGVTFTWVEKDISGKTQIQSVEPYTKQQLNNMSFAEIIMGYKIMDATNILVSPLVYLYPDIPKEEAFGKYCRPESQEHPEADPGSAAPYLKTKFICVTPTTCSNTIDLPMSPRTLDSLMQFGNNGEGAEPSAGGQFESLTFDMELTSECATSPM

[30] = target: Signal transducer and activator of transcription 3 (Homo sapiens) (UniProt P40763); assay: Inhibition of STAT3 nuclear translocation in EGF stimulated human DU145 cells at 1 uM administered before 100 ng/ml EGF stimulation measured after 2 hrs by confocal laser microscopy; format: cell-based; details: DU-145
DU-145 [31] = assay: Induction of apoptosis in human DU145 cells assessed as viable cells at 10 uM after 72 hrs by AnnexinV-propidium iodide based FACS flow cytometry; format: functional; details: DU-145, 72 h, read-out: Activity
PC-3 = assay: Antiproliferative activity against human PC3 cells after 72 hrs by MTT assay; format: functional, cell-based; details: PC-3, 72 h
DU-145 [32] = assay: Effect on Tyr416 phosphorylated-Src protein level in human DU145 cells at 0.1 to 2 uM after 24 hrs by Western blot analysis; format: functional, cell-based
[33] = target: Serine/threonine-protein kinase B-raf (Homo sapiens, UniProt P15056); assay: Inhibition of B-Raf after 60 mins by radiometric assay

IC50 [1]: 23.1 µM
IC50 [3]: > 100 µM
IC50 [4]: > 100 µM
IC50 [7]: > 100 µM
IC50 [8]: > 100 µM
inhibition [9]: inactive
IC50 (HT-29): 7.2 µM
IC50 [13]: 13.1 µM
IC50 (A-431): 8.8 µM
IC50 [21]: > 100 µM
IC50 (DU-145 [22]): 0.7 µM
IC50 [23]: 23.8 µM
IC50 (Angiopoietin-1 receptor): 67.8 µM
IC50 [25]: 77.5 µM
IC50 [26]: > 100 µM
inhibition [29]: Dose-dependent effect
inhibition [30]: Active
IC50 (PC-3): 11.7 µM
IC50 [33]: > 100 µM
Compound: O=C(Nc1ccc([N+](=O)[O-])cc1Cl)c1cc(Cl)ccc1O [NICLOSAMIDE]
Activity (DU-145 [2]): 8.16%
Activity (DU-145 [5]): Active
Activity (DU-145 [6]): 10.44%
Activity (DU-145 [10]): inactive
Activity (DU-145 [11]): 75.35%
Activity (DU-145 [12]): inactive
Activity (DU-145 [14]): inactive
Activity (DU-145 [15]): 15.42%
viability at 5 µM (DU-145 [16]): 61.9%
Activity (DU-145 [17]): 9.76%
Activity (DU-145 [18]): 38.4%
Activity (DU-145 [19]): inactive
Activity (DU-145 [20]): inactive
Activity (DU-145 [24]): Active
Activity (DU-145 [27]): Active
Activity (DU-145 [28]): 16.82%
viability at 10 µM (DU-145 [31]): 43.4%
Activity (DU-145 [32]): inactive
